1 compound from patent US20250281497A1, “FUSED AMINO PYRIMIDINE COMPOUNDS FOR TREATMENT OF SEIZURE DISORDERS” (Ovid Therapeutics Inc., priority 2024, published 2025) can be followed below.

Experiment [1] deals with KA induced SE. In words: Kainic acid (KA) induced SE, EEG recording, pretreatment. It is filed as in vivo, mice. As to conditions: mice pretreated with vehicle; DZ 10 mg/kg IP 2h after KA; pre 4.2±2.4×10^−6. From the text:
This model was chosen due to the similarities with patients undergoing SE, as KA-induced seizures become refractory to benzodiazepines (BDZs) within minutes (Betjemann and Lowenstein, Lancet Neurol 14, 615-624 (2015); Crawshaw and Cock, (2020a) [Seizure: Eur. J. Epilep. 75 (2020) 145-152] Seizure 80, 282; Lee et at, 2022, supra; Reddy and Kuruba, Int J Mol Sci 14, 18284-18318 (2013)).
(§1) EEG recordings and analysis. WT C57Bl/6J adult male mice (12 weeks) were anesthetized with isofluorane and implanted with EEG/EMG electrodes and allowed to recover for 7 days prior to experimentation. […] 2h following KA administration mice were injected with a saturating concentration of diazepam (DZ) 10 mg/kg (IP) and recordings were extended for a further 60 min. […] LabChart 8 software was used for data analysis. Epileptiform activity was identified by changes in the amplitude of electrographic activity characterized by consistent changes in the power of the Fast Fourier transform (FFT) of the EEG and abnormal activity characterized by periods of rhythmic spiking lasting longer than 30s (Moore et al., 2017, supra; Silayeva et al., 2015, supra; Sivakumaran et al., J. Neurosci. 35, 8291-8296 (2015)).
To provide quantitative insights on the effects of KA, raw EEG recordings were subject to Fast-Fourier transformation (8K FFT size, Hann (cosine-bell), 87.50% window overlap) for frequencies between 0-100 Hz 2h after KA injection (Lee et at, 2022, supra).
30 or 60 min later mice were injected with KA (20 mg/kg) and 2h later with DZ as detailed above.

Experiment [2] deals with KA induced SE. In words: KA induced ongoing SE, EEG recording, treatment 2h after KA. The experiment is classed as in vivo, mice. Here is the method:
as §1
To evaluate the potential of KCC2 activators to terminate ongoing SE, the KA model described above was employed. Mice were injected with KA (20 mg/Kg; IP). […] Spectral data were then subjected to FFT and the total EEG power between 1-100 Hz of the 2h following KA treatment (pre-drug) and 30 min following their injection (post-drug) were compared (FIG. 6B). In mice treated with DZ alone variable effects were observed, from large increases to modest reductions in EEG power, but these effects were not significant (FIG. 6C; pre=1.1±0.2×10^−6, post=4.4±7.4×10^−7 μV^2, p=0.214, n=13-14 mice). […] The latency of the treatments to modify EEG power was examined by measuring the time taken for this parameter to be reduced to 50% (FIG. 6E). […] Finally in mice treated with DZ alone 62% were insensitive to the effects of this agent on EEG power.

Turning to `CN1C(=O)CN=C(c2ccccc2)c2cc(Cl)ccc21` [DZ, diazepam], the “total EEG power post DZ” value with KA induced SE [1] is recorded as 2.9±2.7×10^−6 μV^2. Moreover, the “total EEG power post-drug” value in the experiment with KA induced SE [2] (30 min after injection, given 2h after KA, DZ 10 mg/kg, Compound A 50 mg/Kg IP) is reported as 4.4±7.4×10^−7 μV^2. Moreover, in the experiment with KA induced SE [2] (treatment 2h after KA), the “mice insensitive to DZ effects on EEG power” value was 62%.
